Results from USRE38423E1, “Process for in vitro analysis of toxic and allergenic substances” (Biovator Technologies AB, priority 1995, dated 2004).

Legend:
[1] = tested on: human whole blood; type: cell-based; parameters: key to IL-1 / IFNγ / Neopterin / TNF / IL-6 / IL-8 / IL-2 / STL-2R / SCD8 / IL-10 / IL-4: index relative to medium control = 100; details: for IFNγ / IL-1 / IL-2 / IL-4 / IL-6 / IL-8 / IL-10 / Neopterin / SCD8 / STL-2R / TNF: blood from 5 normal humans, highest value at any time or concentration, related to medium control given the value 100
Method: (§1) Five healthy blood donors from both sexes ranging in age between 25 and 55 years are used. Blood is collected by venous puncture into endotoxin free heparin tubes (Coatech, Ljungby, Sweden) that contains 120 IU heparin and are filled with 4 ml of blood. None of the blood donors are allowed to have a history of allergy or atopic excema or any indication of ongoing disease of any kind.
(§2) 100 ul of blood is added to the wells of Nunclon microtiter plates.
(§3) For substances to be tested for effects in the system different concentration are added to the blood. The highest concentration of the substance being non toxic to the cells indicated by inspection in microscopic in presence of vital stain e.g. trypan blue is used as start concentration.
(§4) The microtiter plates are incubated at 37° C. at 90% humidity and with 5% CO2. An appropriate number of identical plates are prepared and are taken out of the incubator for testing at intervals of, 1 day, 2 days and 6 days.
Another set of plates is prepared with the same design as in “Culture protocol” above. Cytokines released from the cultured cells are measured in the supernatants obtained after centrifugation of the plates at 650 g for 10 minutes. The supernatants were either tested immediately or stored at −20° C. until tested.
The instructions of the manufacturers were followed. All these tests are enzyme immunoassays (EIA:s). The principle is that microtiter plate wells are labeled with a cytokine specific capture antibody. If cytokine is present in the samples added to the wells it will be captured to the bottom of the well. […] The reaction is thereafter measured as colour developed after addition of a substrate for the enzyme. The values for the test wells is compared with a standard curve obtained by adding a series of known amounts of cytokine. The values obtained for control wells with no substance added are used as background values for cytokine levels and proliferation as measured by ^3H-thymidin incorporation. Positive indications are recorded when values above 2 SD of the variation of the controls are obtained.
(§5) The highest value as compared to medium control obtained at any time or concentration for each substance is used as indicator value in the table and related to medium control put to value 100 index.

[2] = tested on: human whole blood; assay: Proliferation assay, 3H-thymidine incorporation in diluted whole blood cultures; type: cell-based; details: for Prolif. Index (3H-Thymidine Proliferation): blood from 5 normal humans, highest value at any time or concentration, related to medium control given the value 100; for proliferative response (in words): summary of results, 3H-thymidine incorporation
Method: as §1, §2, §3, §4
One set of plates is used to estimate the proliferative activity of the donor cells spontaneously (=medium or substance dissolved controls); in response to PHA, and in response to samples of test substances at various concentrations. The highest concentration of sub-stance non toxic to the cells indicated by inspection in microscope in presence of vital stain (e.g. trypan blue) is used as start concentration. Ser. dilutions of the sub-stance is then performed as stated above.
The plates were incubated for additional 4 hours at 37° C. The cells were then collected using a Skatron cell harvester (Skatron, Lier, Norway) and Titertek paper filters. The result of his procedure is that the DNA of the cells is stuck in the filter paper, whereas the ^3H-thymidin not incorporated in the DNA passes through the filter and goes with the waste washing water. The radioactivity in the filter papers is thus proportional to the DNA synthesis that occured during the 4 hours preceding the harvesting procedure. The radiactivity of the filter papers is determined in a Packard liquid scintillation counter, and thymidine incorporation was expressed as counts per minute (cpm).
as §5

[3] = summary of results, secreted into supernatants

Molecule	IFNγ [1]	IL-1 [1]	IL-2 [1]	IL-4 [1]	IL-6 [1]	IL-8 [1]	IL-10 [1]	Neopterin [1]	SCD8 [1]	STL-2R [1]	TNF [1]	immune lymphocyte class / specific immune response cytokines induced (in words) [1, 3]	unspecific inflammatory / tissue toxic group cytokines induced (in words) [1, 3]	Prolif. Index (3H-Thymidine Proliferation) [2]	proliferative response (in words) [2]	predicted adverse reaction from cytokine pattern (in words) ([1]; interpretation of the cytokine profile)	Neopterin induction (in words) [1, 3]
phytohemagglutinin [Plus]	800	690	750	820	1620	780	1250	440	940	1820	420	neopterin, IFN-gamma IL-2 and IL-4 and IL-10	IL-1, IL-6, TNF and IL-8	2600	strong proliferative response	–	–
Triton X-100	120	630	85	85	460	200	95	110	95	115	400	–	IL-1, IL-6 and TNF	200	induced proliferation	positive tissue irritant	–
[Cl][Ni][Cl] [IV, Nickel chloride]	1220	1165	445	80	660	380	800	90	110	130	225	IFN-gamma, IL-2 and IL-10	IL-1, IL-6, TNF and IL-8	1340	low proliferative response	–	no Neopterin
